Assay results reported in US20210355235A1, “Compositions and Methods For Treating Cancer with Anti-Renalase antibodies and Anti-PD1 antibodies” (YALE UNIVERSITY, priority 2017, published 2021).

Assays:
renal ischemia = renal ischemia and reperfusion in WT mice; type: in vivo, mouse; settings: 30 minutes of renal ischemia and reperfusion
Procedure: FIG. 3 is a chart showing that ERK or AKT inhibition abrogates protective effect of renalase peptide: WT mice subjected to sham surgery or to 30 minutes of renal ischemia and reperfusion; RP-[…] or vehicle (saline) injected 10 minutes before renal ischemia. ERK inhibitor PD98059 or the PI3K/AKT inhibitor wortmannin abrogated RP-[…]'s protective effect.

MiaPaCa2 cells = settings: pretreatment before rRNLS 30 μg/ml

| SMILES | effect on RP-H220's protective effect (renal ischemia) | effect on rRNLS' protective effect (MiaPaCa2 cells) |
| --- | --- | --- |
| COc1cccc(-c2cc(=O)c3ccccc3o2)c1N [PD98059] | abrogated | – |
| N#CC(=C(/N)Sc1ccccc1N)/C(C#N)=C(\N)Sc1ccccc1N [U0126] | – | abrogated |
